Text: Analysis of a precipitated calcium carbonate having a median particle size of about 5 microns was done before and after being applied as a coating.

O=C([O-])[O-].[Ca+2] [precipitated calcium carbonate, calcium carbonate]
particle size (after preparing a suspension and applying it to a gum pellet for an antacid gum product): 4.9 microns | median particle size (before coating): 5.1 microns
